ChEMBL document CHEMBL1158010, “New cytotoxic oxygenated fucosterols from the brown alga Turbinaria conoides” (1999)
Values after ≈ are worked out from the molar mass of the structure shown.

How the values were obtained:
[1] = tested on: P388; assay: Cytotoxicity against mouse P388 cells after 3 days; settings: P388, 72 h, read-out: ED50 (the source's name)
[2] = tested on: KB; assay: Cytotoxicity against human KB cells after 3 days by MTT assay; settings: 72 h, read-out: ED50 (the source's name)
[3] = tested on: A549; assay: Cytotoxicity against human A549 cells after 6 days by MTT assay; settings: A549, 144 h, read-out: ED50 (the source's name)
[4] = tested on: HT-29; assay: Cytotoxicity against human HT-29 cells after 6 days by MTT assay; settings: HT-29, 144 h, read-out: ED50 (the source's name)

Question: How did the EC50 [1] turn out when `C/C=C(\CC[C@@H](C)[C@H]1CC[C@H]2[C@@H]3C[C@@H](O)C4=CC(=O)CC[C@]4(C)[C@H]3CC[C@]12C)C(C)C` was run?
Answer: 0.9 µg/mL (≈ 2.11 µM)

Question: What about the EC50 [2] of the same compound?
Answer: 4.6 µg/mL (≈ 10.8 µM)

Question: And the EC50 [3]?
Answer: 2.3 µg/mL (≈ 5.39 µM)

Question: And the EC50 [4]?
Answer: 1.2 µg/mL (≈ 2.81 µM)

Question: With `C=CC(CC[C@@H](C)[C@H]1CC[C@H]2[C@@H]3C[C@@H](O)C4=CC(=O)CC[C@]4(C)[C@H]3CC[C@]12C)(OO)C(C)C` (stereo not given in full) as the compound, how does the EC50 [1] read?
Answer: 0.4 µg/mL (≈ 0.872 µM)

Question: What about the EC50 [2] of the same compound?
Answer: 1.8 µg/mL (≈ 3.92 µM)

Question: And the EC50 [3]?
Answer: 1.8 µg/mL (≈ 3.92 µM)

Question: What about the EC50 [4] of the same compound?
Answer: 1.7 µg/mL (≈ 3.71 µM)

Question: `C=CC(CC[C@@H](C)[C@H]1CC[C@H]2[C@@H]3CC(=O)C4=CC(=O)CC[C@]4(C)[C@H]3CC[C@]12C)(OO)C(C)C` (stereo not given in full) was tested. Which EC50 [1] did it give?
Answer: 0.8 µg/mL (≈ 1.75 µM)

Question: What about the EC50 [2] of the same compound?
Answer: 4 µg/mL (≈ 8.76 µM)

Question: And the EC50 [3]?
Answer: 2.5 µg/mL (≈ 5.47 µM)

Question: And the EC50 [4]?
Answer: 1.4 µg/mL (≈ 3.07 µM)

Question: Which results are given for `C/C=C(\CC[C@@H](C)[C@H]1CC[C@H]2[C@@H]3CCC4=CC(=O)CC[C@]4(C)[C@H]3CC[C@]12C)C(C)C`?
Answer: EC50 [1]: > 50 µg/mL; EC50 [2]: > 50 µg/mL; EC50 [3]: > 50 µg/mL; EC50 [4]: > 50 µg/mL

Question: Which results are given for `C/C=C(\CC[C@@H](C)[C@H]1CC[C@H]2[C@@H]3CC(=O)C4=CC(=O)CC[C@]4(C)[C@H]3CC[C@]12C)C(C)C`?
Answer: EC50 [1]: 0.6 µg/mL (≈ 1.41 µM); EC50 [2]: 5.9 µg/mL (≈ 13.9 µM); EC50 [3]: 3.1 µg/mL (≈ 7.3 µM); EC50 [4]: 0.4 µg/mL (≈ 0.942 µM)
